Data reported in patent US20250382344A1, “Soluble GLP1/GIP/NPY2 Receptor Triple Agonists” (Boehringer Ingelheim International GmH, priority 2024, published 2025).

Assay: Solubility in 0.1 M phosphate buffer at pH 7
Type: physicochemical
Conditions: 0.1 M phosphate buffer at pH 7, 10 mg/mL final peptide concentration, shaking 2 hours at room temperature, peptides as TFA-salts; measured sample pH 6.5-7.0
Experimental: Peptides (as TFA-salts) were weighed out in a filter unit (Mini-UniPrep Syringeless Filter 0.45 μm, Whatman PVDF), and 0.1 M phosphate buffer at pH 7 was added to achieve 10 mg/mL final peptide concentration. The peptides were dissolved by shaking the filter units horizontally at 600 rpm for 2 hours at room temperature. Samples were then filtered to remove any insoluble particles. Controls were prepared by weighing out the corresponding peptide solid material and dissolving it in an appropriate vehicle (e.g. ACN:H2O) to a final concentration of 1 mg/mL. Both, the control and sample were analyzed by reversed phase chromatography. The area under the peak of the sample was compared to the control and the solubility was calculated based on that ratio. The pH was measured and recorded for each sample.

solubility at 2 h | Compound
4400 µg/mL | CC[C@H](C)[C@H](NC(=O)[C@H](CC(C)C)NC(=O)[C@H](Cc1c[nH]cn1)NC(=O)[C@H](CCCNC(=N)N)NC(=O)[C@@H](NC(=O)[C@H](Cc1ccccc1)NC(=O)[C@H](C)NC(=O)C(C)(C)NC(=O)[C@H](CCC(N)=O)NC(=O)[C@H](C)NC(=O)[C@H](CCC(N)=O)NC(=O)CNC(=O)[C@H](CCC(=O)O)NC(=O)[C@H](CC(C)C)NC(=O)C(C)(C)NC(=O)[C@@H](NC(=O)[C@H](CO)NC(=O)[C@H](Cc1ccc(O)cc1)NC(=O)[C@H](CC(=O)O)NC(=O)[C@H](CO)NC(=O)[C@@H](NC(=O)[C@H](Cc1ccccc1)NC(=O)[C@@H](NC(=O)CNC(=O)[C@H](CCC(=O)O)NC(=O)C(C)(C)NC(=O)[C@@H](N)Cc1ccc(O)cc1)[C@@H](C)O)[C@@H](C)O)[C@@H](C)CC)C(C)C)C(=O)N[C@@H](CC(N)=O)C(=O)N[C@@H](CCCCNC(=O)[C@@H](N)CCCCNC(=O)CC[C@H](NC(=O)CC[C@H](NC(=O)CC[C@H](NC(=O)CC[C@H](NC(=O)CC[C@H](NC(=O)CC[C@H](NC(=O)CCCCCCCCCCCCCCCCC(=O)O)C(=O)O)C(=O)O)C(=O)O)C(=O)O)C(=O)O)C(=O)O)C(=O)NC(C)(C)C(=O)N[C@H](C(=O)N[C@@H](CCCNC(=N)N)C(=O)N[C@@H](CCC(N)=O)C(=O)N[C@@H](CCCNC(=N)N)C(=O)N[C@@H](Cc1ccc(O)cc1)C(N)=O)[C@@H](C)O [Compound 95, Y-Aib-E-G-T-F-T-S-D-Y-S-I-Aib-L-E-G-Q-A-Q-Aib-A-F-V-R-H-L-I-N-K(1,3)-Aib-T-R-Q-R-Y-NH2.C18DA-gGlu-gGlu-gGlu-gGlu-gGlu-gGlu-eLys(1,2)]
9000 µg/mL | CC[C@H](C)[C@H](NC(=O)[C@H](CC(C)C)NC(=O)[C@H](Cc1c[nH]cn1)NC(=O)[C@H](CCCNC(=N)N)NC(=O)[C@@H](NC(=O)[C@H](Cc1ccccc1)NC(=O)[C@H](C)NC(=O)C(C)(C)NC(=O)[C@H](CCC(=O)O)NC(=O)[C@H](C)NC(=O)[C@H](CCC(N)=O)NC(=O)[C@H](CCCCN)NC(=O)[C@H](CCC(=O)O)NC(=O)[C@H](CC(C)C)NC(=O)C(C)(C)NC(=O)[C@@H](NC(=O)[C@H](CO)NC(=O)[C@H](Cc1ccc(O)cc1)NC(=O)[C@H](CC(=O)O)NC(=O)[C@H](CO)NC(=O)[C@@H](NC(=O)[C@H](Cc1ccccc1)NC(=O)[C@@H](NC(=O)CNC(=O)[C@H](CCC(=O)O)NC(=O)C(C)(C)NC(=O)[C@@H](N)Cc1ccc(O)cc1)[C@@H](C)O)[C@@H](C)O)[C@@H](C)CC)C(C)C)C(=O)N[C@@H](CC(N)=O)C(=O)N[C@@H](CCCCNC(=O)[C@@H](N)CCCCNC(=O)[C@@H](N)CCCCNC(=O)CC[C@H](NC(=O)CC[C@H](NC(=O)CC[C@H](NC(=O)CC[C@H](NC(=O)CC[C@H](NC(=O)CC[C@H](NC(=O)CCCCCCCCCCCCCCCCCCC(=O)O)C(=O)O)C(=O)O)C(=O)O)C(=O)O)C(=O)O)C(=O)O)C(=O)NC(C)(C)C(=O)N[C@H](C(=O)N[C@@H](CCCNC(=N)N)C(=O)N[C@@H](CCC(N)=O)C(=O)N[C@@H](CCCNC(=N)N)C(=O)N[C@@H](Cc1ccc(O)cc1)C(N)=O)[C@@H](C)O [Compound 82, Y-Aib-E-G-T-F-T-S-D-Y-S-I-Aib-L-E-K-Q-A-E-Aib-A-F-V-R-H-L-I-N-K(1,3)-Aib-T-R-Q-R-Y-NH2.C20DA-gGlu-gGlu-gGlu-gGlu-gGlu-gGlu-eLys-eLys(1,2)]

Same assay, conditions: 0.1 M phosphate buffer at pH 7, 10 mg/mL final peptide concentration, shaking 2 hours at room temperature, peptides as TFA-salts; measured sample pH 6.5-7.0; read-out: Solubility

solubility | Compound
9100 µg/mL | CC[C@H](C)[C@H](NC(=O)[C@H](Cc1ccccc1)NC(=O)[C@H](C)NC(=O)C(C)(C)NC(=O)[C@H](CCC(N)=O)NC(=O)[C@H](C)NC(=O)[C@H](CCC(N)=O)NC(=O)[C@H](CCCCN)NC(=O)[C@H](CC(=O)O)NC(=O)[C@H](CC(C)C)NC(=O)C(C)(C)NC(=O)[C@@H](NC(=O)[C@H](CO)NC(=O)[C@H](Cc1ccc(O)cc1)NC(=O)[C@H](CC(=O)O)NC(=O)[C@H](CO)NC(=O)[C@@H](NC(=O)[C@H](Cc1ccccc1)NC(=O)[C@@H](NC(=O)CNC(=O)[C@H](CCC(=O)O)NC(=O)C(C)(C)NC(=O)[C@@H](N)Cc1ccc(O)cc1)[C@@H](C)O)[C@@H](C)O)[C@@H](C)CC)C(=O)N[C@@H](CCCNC(=N)N)C(=O)N[C@@H](Cc1c[nH]cn1)C(=O)N[C@@H](CC(C)C)C(=O)N[C@H](C(=O)N[C@@H](CC(N)=O)C(=O)N[C@@H](CCCCNC(=O)[C@@H](N)CCCCNC(=O)CC[C@H](NC(=O)CC[C@H](NC(=O)CC[C@H](NC(=O)CC[C@H](NC(=O)CC[C@H](NC(=O)CC[C@H](NC(=O)CCCCCCCCCCCCCCCCC(=O)O)C(=O)O)C(=O)O)C(=O)O)C(=O)O)C(=O)O)C(=O)O)C(=O)NC(C)(C)C(=O)N[C@H](C(=O)N[C@@H](CCCNC(=N)N)C(=O)N[C@@H](CCC(N)=O)C(=O)N[C@@H](CCCNC(=N)N)C(=O)N[C@@H](Cc1ccc(O)cc1)C(N)=O)[C@@H](C)O)[C@@H](C)CC [Compound 102, Y-Aib-E-G-T-F-T-S-D-Y-S-I-Aib-L-D-K-Q-A-Q-Aib-A-F-I-R-H-L-I-N-K(1,3)-Aib-T-R-Q-R-Y-NH2.C18DA-gGlu-gGlu-gGlu-gGlu-gGlu-gGlu-eLys(1,2)]
9500 µg/mL | CC[C@H](C)[C@H](NC(=O)[C@H](CC(C)C)NC(=O)[C@H](Cc1c[nH]cn1)NC(=O)[C@H](CCCNC(=N)N)NC(=O)[C@@H](NC(=O)[C@H](Cc1ccccc1)NC(=O)[C@H](C)NC(=O)C(C)(C)NC(=O)[C@H](CCC(N)=O)NC(=O)[C@H](C)NC(=O)[C@H](CCC(N)=O)NC(=O)[C@H](CCC(=O)O)NC(=O)[C@H](CC(=O)O)NC(=O)[C@H](CC(C)C)NC(=O)C(C)(C)NC(=O)[C@@H](NC(=O)[C@H](CO)NC(=O)[C@H](Cc1ccc(O)cc1)NC(=O)[C@H](CC(=O)O)NC(=O)[C@H](CO)NC(=O)[C@@H](NC(=O)[C@H](Cc1ccccc1)NC(=O)[C@@H](NC(=O)CNC(=O)[C@H](CCC(=O)O)NC(=O)C(C)(C)NC(=O)[C@@H](N)Cc1ccc(O)cc1)[C@@H](C)O)[C@@H](C)O)[C@@H](C)CC)C(C)C)C(=O)N[C@@H](CC(N)=O)C(=O)N[C@@H](CCCCNC(=O)[C@@H](N)CCCCNC(=O)CC[C@H](NC(=O)[C@H](CCC(=O)O)NC(=O)CC[C@H](NC(=O)CC[C@H](NC(=O)CC[C@H](NC(=O)CC[C@H](NC(=O)CCCCCCCCCCCCCCCCC(=O)O)C(=O)O)C(=O)O)C(=O)O)C(=O)O)C(=O)O)C(=O)NC(C)(C)C(=O)N[C@H](C(=O)N[C@@H](CCCNC(=N)N)C(=O)N[C@@H](CCC(N)=O)C(=O)N[C@@H](CCCNC(=N)N)C(=O)N[C@@H](Cc1ccc(O)cc1)C(N)=O)[C@@H](C)O [Compound 40, Y-Aib-E-G-T-F-T-S-D-Y-S-I-Aib-L-D-E-Q-A-Q-Aib-A-F-V-R-H-L-I-N-K(1,3)-Aib-T-R-Q-R-Y-NH2.C18DA-gGlu-gGlu-gGlu-gGlu-gGlu-gGlu-eLys(1,2)]

The next lines start with the molecule.

Compound | solubility
CC[C@H](C)[C@H](NC(=O)[C@H](CC(C)C)NC(=O)[C@H](Cc1c[nH]cn1)NC(=O)[C@H](CCCNC(=N)N)NC(=O)[C@@H](NC(=O)[C@H](Cc1ccccc1)NC(=O)[C@H](CCC(=O)O)NC(=O)C(C)(C)NC(=O)[C@H](CCC(N)=O)NC(=O)[C@H](C)NC(=O)[C@H](CCC(N)=O)NC(=O)[C@H](CCCCN)NC(=O)[C@H](CCC(=O)O)NC(=O)[C@H](CC(C)C)NC(=O)C(C)(C)NC(=O)[C@@H](NC(=O)[C@H](CO)NC(=O)[C@H](Cc1ccc(O)cc1)NC(=O)[C@H](CC(=O)O)NC(=O)[C@H](CO)NC(=O)[C@@H](NC(=O)[C@H](Cc1ccccc1)NC(=O)[C@@H](NC(=O)CNC(=O)[C@H](CCC(=O)O)NC(=O)C(C)(C)NC(=O)[C@@H](N)Cc1ccc(O)cc1)[C@@H](C)O)[C@@H](C)O)[C@@H](C)CC)C(C)C)C(=O)N[C@@H](CC(N)=O)C(=O)N[C@@H](CCCCNC(=O)CCCCCNC(=O)CC[C@H](NC(=O)[C@H](CCC(=O)O)NC(=O)CC[C@H](NC(=O)CC[C@H](NC(=O)CC[C@H](NC(=O)CCCCCCCCCCCCCCCCC(=O)O)C(=O)O)C(=O)O)C(=O)O)C(=O)O)C(=O)N[C@@H](CC(C)C)C(=O)N[C@H](C(=O)N[C@@H](CCCNC(=N)N)C(=O)N[C@@H](CCC(N)=O)C(=O)N[C@@H](CCCNC(=N)N)C(=O)N[C@@H](Cc1ccc(O)cc1)C(N)=O)[C@@H](C)O [Compound 45, Y-Aib-E-G-T-F-T-S-D-Y-S-I-Aib-L-E-K-Q-A-Q-Aib-E-F-V-R-H-L-I-N-K(1,3)-L-T-R-Q-R-Y-NH2.C18DA-gGlu-gGlu-gGlu-gGlu-gGlu-AHX(1,2)] | 5000 µg/mL
CC[C@H](C)[C@H](NC(=O)[C@H](CC(C)C)NC(=O)[C@H](Cc1c[nH]cn1)NC(=O)[C@H](CCCNC(=N)N)NC(=O)[C@@H](NC(=O)[C@H](Cc1ccccc1)NC(=O)[C@H](C)NC(=O)C(C)(C)NC(=O)[C@H](CCC(N)=O)NC(=O)[C@H](C)NC(=O)[C@H](CCC(=O)O)NC(=O)[C@H](CCCCN)NC(=O)[C@H](CCC(=O)O)NC(=O)[C@H](CC(C)C)NC(=O)C(C)(C)NC(=O)[C@@H](NC(=O)[C@H](CO)NC(=O)[C@H](Cc1ccc(O)cc1)NC(=O)[C@H](CC(=O)O)NC(=O)[C@H](CO)NC(=O)[C@@H](NC(=O)[C@H](Cc1ccccc1)NC(=O)[C@@H](NC(=O)CNC(=O)[C@H](CCC(=O)O)NC(=O)C(C)(C)NC(=O)[C@@H](N)Cc1ccc(O)cc1)[C@@H](C)O)[C@@H](C)O)[C@@H](C)CC)C(C)C)C(=O)N[C@@H](CC(N)=O)C(=O)N[C@@H](CCCCNC(=O)[C@@H](N)CCCCNC(=O)[C@H](CCC(=O)O)NC(=O)CC[C@H](NC(=O)CC[C@H](NC(=O)CC[C@H](NC(=O)CC[C@H](NC(=O)CC[C@H](NC(=O)CCCCCCCCCCCCCCCCCCC(=O)O)C(=O)O)C(=O)O)C(=O)O)C(=O)O)C(=O)O)C(=O)NC(C)(C)C(=O)N[C@H](C(=O)N[C@@H](CCCNC(=N)N)C(=O)N[C@@H](CCC(N)=O)C(=O)N[C@@H](CCCNC(=N)N)C(=O)N[C@@H](Cc1ccc(O)cc1)C(N)=O)[C@@H](C)O [Compound 28, Y-Aib-E-G-T-F-T-S-D-Y-S-I-Aib-L-E-K-E-A-Q-Aib-A-F-V-R-H-L-I-N-K(1,3)-Aib-T-R-Q-R-Y-NH2.C20DA-gGlu-gGlu-gGlu-gGlu-gGlu-gGlu-eLys(1,2)] | 10000 µg/mL
